From ChEMBL document CHEMBL1158343, “Synthesis, antimicrobial and antiviral evaluation of substituted imidazole derivatives” (Eur J Med Chem, 2009)
≈ marks a conversion by molar mass, not a printed value.

Tested on: Vaccinia virus
Experiment: Antiviral activity against Vaccinia virus infected in human HEL cells assessed as reduction in virus-induced cytopathogenicity after 3 days
Assay type: functional, organism-based
Details: Orthopoxvirus vaccinia, 72 h

Structure (SMILES) | EC50
COc1ccc(-c2nccn2C(=O)c2ccc([N+](=O)[O-])cc2)cc1 | > 100 µg/mL
O=C(c1ccc([N+](=O)[O-])cc1)n1ccnc1-c1cccc([N+](=O)[O-])c1 | > 100 µg/mL
O=C(O)c1ccccc1-c1nccn1C(=O)c1ccc([N+](=O)[O-])cc1 | > 100 µg/mL
O=C(c1ccc([N+](=O)[O-])cc1)n1ccnc1-c1ccccc1Cl | > 100 µg/mL
O=C(c1ccccc1Br)n1ccnc1-c1ccc([N+](=O)[O-])cc1 | > 100 µg/mL
O=C(c1ccc([N+](=O)[O-])cc1)n1ccnc1-c1ccc([N+](=O)[O-])cc1 | 4 µg/mL (≈ 11.8 µM)
Nc1nc2c(ncn2COC(CO)CO)c(=O)[nH]1 [GANCICLOVIR] | > 100 µg/mL
O=C(c1ccccc1Br)n1ccnc1-c1ccccc1[N+](=O)[O-] | > 100 µg/mL
O=C(c1ccc([N+](=O)[O-])cc1)n1ccnc1-c1ccccc1[N+](=O)[O-] | > 100 µg/mL
NC(=O)c1ncn([C@@H]2O[C@H](CO)[C@@H](O)[C@H]2O)n1 [RIBAVIRIN] | > 250 µg/mL
O=c1[nH]c(=O)n([C@H]2C[C@H](O)[C@@H](CO)O2)cc1/C=C/Br [BRIVUDINE] | 5 µg/mL (≈ 15 µM)
O=C(c1ccccc1Br)n1ccnc1-c1cccc([N+](=O)[O-])c1 | > 100 µg/mL
O=C(c1ccccc1Br)n1ccnc1-c1ccccc1Cl | > 100 µg/mL
O=C(c1ccccc1Br)n1ccnc1-c1ccc(Cl)cc1 | > 100 µg/mL
COc1ccc(-c2nccn2C(=O)c2ccccc2Br)cc1 | > 100 µg/mL
O=C(c1ccc([N+](=O)[O-])cc1)n1ccnc1-c1cccc(Cl)c1 | 45 µg/mL (≈ 137 µM)
O=C(c1ccc([N+](=O)[O-])cc1)n1ccnc1-c1ccc(Cl)cc1 | 2 µg/mL (≈ 6.1 µM)
Nc1ccn(C[C@@H](CO)OCP(=O)(O)O)c(=O)n1.O.O [CIDOFOVIR] | 7 µg/mL
